This note sets out measurements from US9890142B2, “PDE4 inhibitor” (Meiji Seika Pharma Co., Ltd., priority 2013, dated 2018).

The test deals with PDE4. Put plainly: Evaluation of PDE4 inhibition (scintillation proximity assay). It counts as biochemical. The note with it: inhibition rate relative to control, test compound at 1 μM. The method in brief: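 PDE4 was incubated 120 min at room temperature with [3H]-cAMP and compound in 50 mM Tris-HCl pH 7.5, 8.3 mM MgCl2, 1.7 mM EDTA, 0.3 mg/mL BSA. Product captured on ZnSO4-containing YSi-SPA beads and counted; inhibition calculated against DMSO control after no-enzyme blank subtraction.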
For orientation: Scintillation proximity formats need no separation of bound from free tracer.
Turning to `Cc1cccnc1-c1cc(Cl)cc2nc(N3CCNC[C@@H]3C)oc12` [Example 68, (S)-5-Chloro-2-(2-methylpiperazin-1-yl)-7-(3-methylpyridin-2-yl)benzoxazole], the “PDE4 inhibitory activity (1 μM (%))” value came to 38%.
In the case of `C[C@H]1CNCCN1c1nc2cc(Cl)cc(-c3ncc[nH]3)c2o1` [Example 50, (S)-5-Chloro-7-(1H-imidazol-2-yl)-2-(2-methylpiperazin-1-yl)benzoxazole], the “PDE4 inhibitory activity (1 μM (%))” value is reported as 62%.
`Cc1cc(F)cc2nc(N3CCNC[C@@H]3C)oc12` [Example 5, (S)-5-Fluoro-7-methyl-2-(2-methylpiperazin-1-yl)benzoxazole]: the “PDE4 inhibitory activity (1 μM (%))” value is recorded as 25%.
Take `C[C@H]1CNCCN1c1nc2cc(F)cc(-c3ncco3)c2o1` [Example 104, (S)-5-Fluoro-2-(2-methylpiperazin-1-yl)-7-(oxazol-2-yl)benzoxazole]: the “PDE4 inhibitory activity (1 μM (%))” value was found to be 88%.
Then `Cc1nc(-c2cc(Cl)cc3nc(N4CCNC[C@@H]4C)oc23)cs1` [Example 69, (S)-5-Chloro-2-(2-methylpiperazin-1-yl)-7-(2-methylthiazol-4-yl)benzoxazole], with 65%; and `C[C@H]1CNCCN1c1nc2cc(Cl)cc(N3CCCC3)c2o1` [Example 20, (S)-5-Chloro-2-(2-methylpiperazin-1-yl)-7-(pyrrolidin-1-yl)benzoxazole], with 71%; and `C[C@H]1CNCCN1c1nc2cc(Cl)cc(-c3ccncc3)c2o1` [Example 43, (S)-5-Chloro-2-(2-methylpiperazin-1-yl)-7-(pyridin-4-yl)benzoxazole], with 61%.
As for `C[C@H]1CNCCN1c1nc2cc(Cl)cc(-c3ccc(F)cn3)c2o1` [Example 73, (S)-5-Chloro-7-(5-fluoropyridin-2-yl)-2-(2-methylpiperazin-1-yl)benzoxazole], the figure is 93%; as for `C[C@H]1CNCCN1c1nc2cc(Cl)cc(OCC3CC3)c2o1` [Example 53, (S)-5-Chloro-7-(cyclopropylmethoxy)-2-(2-methylpiperazin-1-yl)benzoxazole], 50%; as for `C[C@H]1CNCCN1c1nc2c(OC(F)(F)F)c(F)cc(-n3cccn3)c2o1` [Example 136, (S)-5-Fluoro-2-(2-methylpiperazin-1-yl)-7-(1H-pyrazol-1-yl)-4-(trifluoromethoxy)benzoxazole], 90%.
Take `C[C@H]1CNCCN1c1nc2cc(C(F)(F)F)cc(-c3ncco3)c2o1` [Example 127, (S)-2-(2-Methylpiperazin-1-yl)-7-(oxazol-2-yl)-5-(trifluoromethyl)benzoxazole]: the “PDE4 inhibitory activity (1 μM (%))” value is reported as 90%.
With `C[C@H]1CNCCN1c1nc2cc(Cl)cc(-c3ccon3)c2o1` [Example 108, (S)-5-Chloro-7-(isoxazol-3-yl)-2-(2-methylpiperazin-1-yl)benzoxazole], the “PDE4 inhibitory activity (1 μM (%))” value was 66%.
As for `C[C@H]1CNCCN1c1nc2cc(Cl)c(F)c(-c3ccccn3)c2o1` [Example 92, (S)-5-Chloro-6-fluoro-2-(2-methylpiperazin-1-yl)-7-(pyridin-2-yl)benzoxazole], the “PDE4 inhibitory activity (1 μM (%))” value is on record as 71%.
Regarding `CCc1cc(Cl)cc2nc(N3CCNC[C@@H]3C)oc12` [Example 8, (S)-5-Chloro-7-ethyl-2-(2-methylpiperazin-1-yl)benzoxazole], the “PDE4 inhibitory activity (1 μM (%))” value turned out to be 79%.
As for `CCCCc1cc(Cl)cc2nc(N3CCNC[C@@H]3C)oc12` [Example 32, (S)-7-n-Butyl-5-chloro-2-(2-methylpiperazin-1-yl)benzoxazole], the figure is 62%; as for `C[C@H]1CNCCN1c1nc2c(F)c(Cl)cc(-c3ccccn3)c2o1` [Example 128, (S)-5-Chloro-4-fluoro-2-(2-methylpiperazin-1-yl)-7-(pyridin-2-yl)benzoxazole], 79%; as for `C[C@H]1CNCCN1c1nc2c(OC(F)(F)F)c(F)cc(-c3ccccn3)c2o1` [Example 134, (S)-5-Fluoro-2-(2-methylpiperazin-1-yl)-7-(pyridin-2-yl)-4-(trifluoromethoxy)benzoxazole], 88%.
Regarding `CSc1c(Cl)cc(-c2ccccn2)c2oc(N3CCNC[C@@H]3C)nc12` [Example 150, (S)-5-Chloro-2-(2-methylpiperazin-1-yl)-4-(methylthio)-7-(pyridin-2-yl)benzoxazole], the “PDE4 inhibitory activity (1 μM (%))” value stood at 91%.
As for `Cc1cc(N2CCCC2)cc2nc(N3CCNC[C@@H]3C)oc12` [Example 172, (S)-7-Methyl-5-(pyrrolidin-1-yl)-2-(2-methylpiperazin-1-yl)benzoxazole], the figure is below 10%; as for `C[C@H]1CNCCN1c1nc2cc(C#N)cc(-c3ncco3)c2o1` [Example 113, (S)-5-Cyano-2-(2-methylpiperazin-1-yl)-7-(oxazol-2-yl)benzoxazole], 71%.
Regarding `CC(C)Cc1cc(Cl)cc2nc(N3CCNC[C@@H]3C)oc12` [Example 47, (S)-5-Chloro-7-isobutyl-2-(2-methylpiperazin-1-yl)benzoxazole], the “PDE4 inhibitory activity (1 μM (%))” value stood at 35%.
Turning to `C[C@H]1CNCCN1c1nc2cc(Cl)c(F)c(-c3nccs3)c2o1` [Example 93, (S)-5-Chloro-6-fluoro-2-(2-methylpiperazin-1-yl)-7-(thiazol-2-yl)benzoxazole], the “PDE4 inhibitory activity (1 μM (%))” value worked out at 95%.
As for `CC(C)Oc1cc(Cl)cc2nc(N3CCNC[C@@H]3C)oc12` [Example 7, (S)-5-Chloro-7-isopropoxy-2-(2-methylpiperazin-1-yl)benzoxazole], the “PDE4 inhibitory activity (1 μM (%))” value is reported as 59%.
`C[C@H]1CNCCN1c1nc2cc(Cl)cc(CC3CCCCC3)c2o1` [Example 51, (S)-5-Chloro-7-(cyclohexylmethyl)-2-(2-methylpiperazin-1-yl)-benzoxazole]: the “PDE4 inhibitory activity (1 μM (%))” value worked out at 12%.
With `C[C@@H]1CN(c2nc3c(OC(F)(F)F)c(Cl)cc(-c4nccs4)c3o2)CCN1` [Example 176, (R)-5-Chloro-2-(3-methylpiperazin-1-yl)-7-(thiazol-2-yl)-4-(trifluoromethoxy)benzoxazole], the “PDE4 inhibitory activity (1 μM (%))” value is listed as 91%.
As for `Cc1cc(-c2ccsc2)cc2nc(N3CCNC[C@@H]3C)oc12` [Example 173, (S)-7-Methyl-5-(thiophen-3-yl)-2-(2-methylpiperazin-1-yl)benzoxazole], the “PDE4 inhibitory activity (1 μM (%))” value came to 35%.
As for `C[C@H]1CNCCN1c1nc2cc(Cl)cc(OC3CCCC3)c2o1` [Example 28, (S)-5-Chloro-7-(cyclopentyloxy)-2-(2-methylpiperazin-1-yl)benzoxazole], the figure is 81%.
Then `C[C@H]1CNCCN1c1nc2c(F)c(F)c(F)c(-n3cccn3)c2o1` [Example 124, (S)-4,5,6-Trifluoro-2-(2-methylpiperazin-1-yl)-7-(1H-pyrazol-1-yl)benzoxazole], with 46%; and `C[C@H]1CNCCN1c1nc2cc(Cl)cc(-c3ncccc3C#N)c2o1` [Example 66, (S)-5-Chloro-7-(3-cyanopyridin-2-yl)-2-(2-methylpiperazin-1-yl)benzoxazole], with 57%.
Turning to `C[C@H]1CNCCN1c1nc2cc(Cl)c(Br)c(-c3ccccn3)c2o1` [Example 152, (S)-6-Bromo-5-chloro-2-(2-methylpiperazin-1-yl)-7-(pyridin-2-yl)benzoxazole], the “PDE4 inhibitory activity (1 μM (%))” value is on record as 68%.
As for `CCc1cc(Cl)cc2nc(N3CCNC[C@@H]3CC)oc12` [Example 14, (S)-5-Chloro-7-ethyl-2-(2-ethylpiperazin-1-yl)benzoxazole], the figure is 37%; as for `C[C@H]1CNCCN1c1nc2cc(Cl)cc(C(=O)N(C)C)c2o1` [Example 96, (S)-5-Chloro-7-dimethylaminocarbonyl-2-(2-methylpiperazin-1-yl)benzoxazole], below 10%; as for `C[C@H]1CNCCN1c1nc2c(OC(F)(F)F)c(Cl)cc(-c3ccccn3)c2o1` [Example 86, (S)-5-Chloro-2-(2-methylpiperazin-1-yl)-7-(pyridin-2-yl)-4-(trifluoromethoxy)benzoxazole], 91%.
For the compound `C[C@H]1CNCCN1c1nc2cc(Cl)cc(-n3ccnc3)c2o1` [Example 36, (S)-5-Chloro-7-(1H-imidazol-1-yl)-2-(2-methylpiperazin-1-yl)benzoxazole], the “PDE4 inhibitory activity (1 μM (%))” value was 39%.
Take `C[C@H]1CNCCN1c1nc2c(C(F)(F)F)c(Cl)cc(-c3nccs3)c2o1` [Example 84, (S)-5-Chloro-2-(2-methylpiperazin-1-yl)-7-(thiazol-2-yl)-4-(trifluoromethyl)benzoxazole]: the “PDE4 inhibitory activity (1 μM (%))” value is listed as 95%.
On to `C[C@H]1CNCCN1c1nc2c(C3CC3)c(Cl)cc(-c3ccccn3)c2o1` [Example 149, (S)-5-Chloro-4-cyclopropyl-2-(2-methylpiperazin-1-yl)-7-(pyridin-2-yl)benzoxazole], for which the “PDE4 inhibitory activity (1 μM (%))” value was 91%.
Then `C[C@H]1CNCCN1c1nc2c(F)c(F)c(F)c(-c3nccs3)c2o1` [Example 123, (S)-4,5,6-Trifluoro-2-(2-methylpiperazin-1-yl)-7-(thiazol-2-yl)benzoxazole], with 95%; and `COc1c(Cl)cc(-c2ccccn2)c2oc(N3CCNC[C@@H]3C)nc12` [Example 153, (S)-5-Chloro-4-methoxy-2-(2-methylpiperazin-1-yl)-7-(pyridin-2-yl)benzoxazole], with 93%.
Then `C[C@H]1CNCCN1c1nc2c(-c3ccco3)cc(Cl)cc2o1` [Example 164, (S)-6-Chloro-4-(furan-2-yl)-2-(2-methylpiperazin-1-yl)benzoxazole], with 75%.
`Cc1c(Cl)cc(-c2ccccn2)c2oc(N3CCNC[C@@H]3C)nc12` [Example 131, (S)-5-Chloro-4-methyl-2-(2-methylpiperazin-1-yl)-7-(pyridin-2-yl)benzoxazole]: the “PDE4 inhibitory activity (1 μM (%))” value was found to be 90%.
